In ChEMBL document CHEMBL1139479, “Enantioselective nonsteroidal aromatase inhibitors identified through a multidisciplinary medicinal chemistry approach” (J Med Chem, 2005):

Target: T1, CYP17 (steroid 17-alpha-hydroxylase/17,20 lyase) (Homo sapiens, UniProt P05093)
T1 sequence (P05093 whole entry): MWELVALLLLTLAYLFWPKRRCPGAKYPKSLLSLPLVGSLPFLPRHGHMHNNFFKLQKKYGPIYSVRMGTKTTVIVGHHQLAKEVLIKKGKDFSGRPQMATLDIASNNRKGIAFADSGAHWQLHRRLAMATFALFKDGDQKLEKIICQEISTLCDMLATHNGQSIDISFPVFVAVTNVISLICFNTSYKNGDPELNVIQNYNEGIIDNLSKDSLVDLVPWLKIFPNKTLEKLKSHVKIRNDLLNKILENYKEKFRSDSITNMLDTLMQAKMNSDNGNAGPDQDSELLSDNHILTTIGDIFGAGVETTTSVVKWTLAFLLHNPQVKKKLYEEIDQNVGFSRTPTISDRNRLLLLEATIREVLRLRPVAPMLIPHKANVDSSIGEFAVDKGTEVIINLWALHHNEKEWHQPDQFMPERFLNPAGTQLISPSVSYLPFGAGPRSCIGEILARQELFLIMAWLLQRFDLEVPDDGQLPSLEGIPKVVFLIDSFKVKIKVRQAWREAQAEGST
Assay: in vitro
Description: Inhibition of human CYP17 expressed in Escherichia coli at 2.5 uM

Structure (SMILES)	inhibition at 2.5 µM
O=c1c([C@@H](c2ccc([N+](=O)[O-])cc2)n2ccnc2)coc2ccccc12	20%
N#Cc1ccc([C@H](c2coc3ccccc3c2=O)n2ccnc2)cc1	6%
O=c1c([C@H](c2ccc(Br)cc2)n2ccnc2)coc2ccccc12	13%
N#Cc1ccc([C@@H](c2coc3ccccc3c2=O)n2ccnc2)cc1	6%
O=c1c([C@@H](c2ccc(Br)cc2)n2ccnc2)coc2ccccc12	17%
O=c1c([C@H](c2ccc([N+](=O)[O-])cc2)n2ccnc2)coc2ccccc12	12%
